Assay results as given in the supplement of paper PMC13380429.

Columns and labels:
Conditions in all cases: 72 h
[1] = test system: U2OS; test: cell viability relative to DMSO; higher = less toxic
[2] = test system: Caco-2; test: as above
[3] = test system: HepG2; test: as above
[4] = test system: Vero E6; test: as above
[5] = test system: Calu-3; test: as above
[6] = test system: U2OS; test: drug sensitivity score (DSS) for viability; higher = more toxic; extreme values may be limits of the assay
[7] = test system: Caco-2; test: as above
[8] = test system: HepG2; test: as above
[9] = test system: Vero E6; test: as above
[10] = test system: Calu-3; test: as above
[11] = test system: U2OS; test: relative viability EC50 (midpoint between 100% and the lowest measured viability); higher = less toxic
[12] = test system: Caco-2; test: as above
[13] = test system: HepG2; test: as above
[14] = test system: Vero E6; test: as above
[15] = test system: Calu-3; test: as above

SMILES | cell viability ([1]; 1 nM) [%] | cell viability ([1]; 10 nM) [%] | cell viability ([1]; 100 nM) [%] | cell viability ([1]; 1000 nM) [%] | cell viability ([1]; 10000 nM) [%] | cell viability ([2]; 1 nM) [%] | cell viability ([2]; 10 nM) [%] | cell viability ([2]; 100 nM) [%] | cell viability ([2]; 1000 nM) [%] | cell viability ([2]; 10000 nM) [%] | cell viability ([3]; 1 nM) [%] | cell viability ([3]; 10 nM) [%] | cell viability ([3]; 100 nM) [%] | cell viability ([3]; 1000 nM) [%] | cell viability ([3]; 10000 nM) [%] | cell viability ([4]; 1 nM) [%] | cell viability ([4]; 10 nM) [%] | cell viability ([4]; 100 nM) [%] | cell viability ([4]; 1000 nM) [%] | cell viability ([4]; 10000 nM) [%] | cell viability ([5]; 1 nM) [%] | cell viability ([5]; 10 nM) [%] | cell viability ([5]; 100 nM) [%] | cell viability ([5]; 1000 nM) [%] | cell viability ([5]; 10000 nM) [%] | drug sensitivity score [6] | drug sensitivity score [7] | drug sensitivity score [8] | drug sensitivity score [9] | drug sensitivity score [10] | relative viability EC50 [11] [µM] | relative viability EC50 [12] [µM] | relative viability EC50 [13] [µM] | relative viability EC50 [14] [µM] | relative viability EC50 [15] [µM]
O=C(NCC(=O)N1CCCCC1)Nc1ccc2nnsc2c1 [UNC2327] | 99.9 | 106 | 96.3 | 99.1 | 99.8 | 95.3 | 102 | 95.4 | 105 | 95.4 | 87.1 | 93.7 | 103 | 99.7 | 98.1 | 97.5 | 103 | 98.7 | 101 | 104 | 95 | 97.5 | 90.8 | 103 | 99.3 | 0 | 0 | 0 | 0 | 0 | > 10 | > 10 | > 10 | > 10 | > 10
O=C(Oc1ccc([N+](=O)[O-])cc1)N1CCN(Cc2cccc(Oc3ccccc3)c2)CC1 [JZL-195] | 98.6 | 100 | 97.4 | 100 | 94.6 | 107 | 94.7 | 86.7 | 93.7 | 95.4 | 91.8 | 99.5 | 103 | 99.2 | 82.4 | 97.3 | 103 | 104 | 92.9 | 99.7 | 102 | 104 | 91.5 | 103 | 93.5 | 0 | 0 | 0.5 | 0 | 0 | > 10 | > 10 | > 10 | > 10 | > 10
CCCCCCCCCCCCCCCCCCN(CCCCCCCCCCCCCCCCCC)CCCN(CCO)CCO [avridine] | 95.7 | 101 | 98.9 | 104 | 100 | 106 | 97 | 90.4 | 105 | 146 | 109 | 98.1 | 98 | 106 | 108 | 104 | 101 | 106 | 98.5 | 102 | 91.5 | 101 | 101 | 95.7 | 108 | 0 | 0 | 0 | 0 | 0 | > 10 | > 10 | > 10 | > 10 | > 10
Nc1nc(F)nc2c1ncn2[C@@H]1O[C@H](COP(=O)(O)O)[C@@H](O)[C@@H]1O [fludarabine-phosphate] | 103 | 105 | 97.4 | 99.7 | 104 | 94.5 | 106 | 98.6 | 96.9 | 101 | 90.9 | 85.3 | 94.7 | 98.5 | 77.7 | 104 | 105 | 101 | 101 | 97.6 | 97.1 | 86.8 | 98.3 | 92.9 | 89.2 | 0 | 0 | 0 | 0 | 0 | > 10 | > 10 | > 10 | > 10 | > 10
CCc1c(C(=O)NCCc2ccc(N3CCCCC3)cc2)[nH]c2ccc(Cl)cc12 | 98 | 93.9 | 98.8 | 95.2 | 98.6 | 98.7 | 94 | 95.2 | 90.6 | 91 | 97.4 | 107 | 92.3 | 105 | 99.4 | 97.6 | 96.4 | 105 | 100 | 96 | 95.8 | 97.5 | 93.4 | 100 | 101 | 0 | 0 | 0 | 0 | 0 | > 10 | > 10 | > 10 | > 10 | > 10
CC(=O)CCCCn1c(=O)c2c(ncn2C)n(C)c1=O [pentoxifylline] | 101 | 96.1 | 102 | 94.2 | 100 | 98.1 | 115 | 97 | 114 | 89.1 | 88.1 | 98.5 | 110 | 94.3 | 106 | 104 | 110 | 108 | 108 | 99.2 | 99.7 | 95 | 104 | 95.8 | 98.1 | 0 | 0 | 0 | 0 | 0 | > 10 | > 10 | > 10 | > 10 | > 10
